Activity calls are given as the source filed them. The calls are words filed in the database; no cut-off is given here.
Legend:
[1] = biological target: Tyrosine-protein kinase SYK (Homo sapiens) (UniProt P43405); experiment: Inhibition of human SYK at 1 uM using poly (Glu, Tyr)4:1 as substrate in presence of [gamma33P]-ATP by HotSpot assay relative to control
BaF3 = experiment: Antitumor activity against mouse BaF3 cells expressing native EML4-ALK implanted in mouse assessed as tumor regression at 50 mg/kg, po administered once daily and measured after 8 days relative to control; format: functional; conditions: time 8 day
[2] = biological target: G protein-coupled receptor kinase 3 (Homo sapiens) (UniProt P35626); experiment: Inhibition of human ADRBK2 at 1 uM using casein as substrate in presence of [gamma33P]-ATP by HotSpot assay relative to control
Chain of G protein-coupled receptor kinase 3 (Homo sapiens) (P35626 whole entry): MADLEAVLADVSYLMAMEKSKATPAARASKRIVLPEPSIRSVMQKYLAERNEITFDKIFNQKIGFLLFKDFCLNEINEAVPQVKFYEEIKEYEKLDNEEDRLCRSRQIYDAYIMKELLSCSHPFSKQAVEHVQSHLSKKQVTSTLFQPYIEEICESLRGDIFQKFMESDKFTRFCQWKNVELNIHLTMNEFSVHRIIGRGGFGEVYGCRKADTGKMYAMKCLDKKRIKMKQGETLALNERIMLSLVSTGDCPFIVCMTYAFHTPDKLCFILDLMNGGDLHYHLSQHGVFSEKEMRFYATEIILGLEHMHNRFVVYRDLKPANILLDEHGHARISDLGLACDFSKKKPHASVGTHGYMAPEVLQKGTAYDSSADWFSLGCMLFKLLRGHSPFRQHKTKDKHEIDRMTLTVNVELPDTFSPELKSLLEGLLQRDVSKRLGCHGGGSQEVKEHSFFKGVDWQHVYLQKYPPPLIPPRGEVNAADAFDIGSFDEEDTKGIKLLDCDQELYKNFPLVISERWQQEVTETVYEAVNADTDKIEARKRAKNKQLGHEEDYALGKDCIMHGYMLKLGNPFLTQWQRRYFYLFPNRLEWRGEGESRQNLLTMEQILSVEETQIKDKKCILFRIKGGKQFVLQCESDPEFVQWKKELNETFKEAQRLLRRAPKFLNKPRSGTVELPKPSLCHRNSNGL

[3] = system: EML4-ALK (Homo sapiens), Q9UM73+Q9HC35 [S1206Y]; conditions: BaF3, time 3-5 weeks
[4] = biological target: PAS domain-containing serine/threonine-protein kinase (Homo sapiens) (UniProt Q96RG2); experiment: Inhibition of human PASK at 1 uM using KKLNRTLSFAEPG as substrate in presence of [gamma33P]-ATP by HotSpot assay relative to control
[5] = biological target: Serine/threonine-protein kinase Chk2 (Homo sapiens, UniProt O96017, I157T); experiment: Inhibition of human CHEK2 I157T mutant using KKKVSRSGLYRSPSMPENLNRPR as substrate in presence of [gamma33P]-ATP by HotSpot assay
NCI-H23 = conditions: time 72 hrs
[6] = system: Epidermal growth factor receptor (Homo sapiens), P00533 [L858R,T790M]; conditions: BaF3, time 72.0 hrs
[7] = biological target: Tyrosine-protein kinase JAK2 (Homo sapiens, UniProt O60674); experiment: Inhibition of human JAK2 using poly (Glu, Tyr)4:1 as substrate in presence of [gamma33P]-ATP by HotSpot assay
Chain of Tyrosine-protein kinase JAK2 (O60674 whole entry): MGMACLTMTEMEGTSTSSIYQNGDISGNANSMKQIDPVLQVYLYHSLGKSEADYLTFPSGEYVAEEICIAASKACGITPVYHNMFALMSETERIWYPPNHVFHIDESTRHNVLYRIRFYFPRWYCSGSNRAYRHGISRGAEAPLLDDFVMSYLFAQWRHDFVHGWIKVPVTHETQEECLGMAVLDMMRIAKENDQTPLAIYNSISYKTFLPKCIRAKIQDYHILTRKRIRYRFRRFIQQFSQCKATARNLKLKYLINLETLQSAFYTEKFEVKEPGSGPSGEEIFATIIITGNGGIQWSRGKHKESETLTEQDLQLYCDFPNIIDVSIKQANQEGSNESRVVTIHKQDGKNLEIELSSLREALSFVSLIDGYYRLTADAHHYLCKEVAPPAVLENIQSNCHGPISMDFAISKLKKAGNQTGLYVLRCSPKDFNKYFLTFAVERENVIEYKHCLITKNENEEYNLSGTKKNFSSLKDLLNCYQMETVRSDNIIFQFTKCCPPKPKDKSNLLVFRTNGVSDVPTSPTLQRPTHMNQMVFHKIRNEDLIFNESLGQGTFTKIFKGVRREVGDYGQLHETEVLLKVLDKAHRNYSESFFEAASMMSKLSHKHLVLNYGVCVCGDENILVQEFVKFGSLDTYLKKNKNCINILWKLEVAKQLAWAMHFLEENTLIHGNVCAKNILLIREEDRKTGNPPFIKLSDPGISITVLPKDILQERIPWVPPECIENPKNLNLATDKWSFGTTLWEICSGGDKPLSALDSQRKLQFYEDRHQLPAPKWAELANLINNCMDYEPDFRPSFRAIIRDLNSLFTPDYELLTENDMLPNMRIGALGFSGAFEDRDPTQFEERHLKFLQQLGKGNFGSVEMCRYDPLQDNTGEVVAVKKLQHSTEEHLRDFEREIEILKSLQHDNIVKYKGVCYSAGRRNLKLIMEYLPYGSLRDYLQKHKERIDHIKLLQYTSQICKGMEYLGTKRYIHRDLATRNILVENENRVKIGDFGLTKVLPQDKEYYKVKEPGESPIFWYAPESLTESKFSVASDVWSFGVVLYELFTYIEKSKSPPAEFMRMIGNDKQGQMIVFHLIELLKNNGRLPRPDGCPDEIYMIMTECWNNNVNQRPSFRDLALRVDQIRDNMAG

[8] = biological target: Protein kinase C eta type (Homo sapiens) (UniProt P24723); experiment: Inhibition of human PKCeta at 1 uM using ERMRPRKRQGSVRRRV as substrate in presence of [gamma33P]-ATP by HotSpot assay relative to control
[9] = biological target: Receptor tyrosine-protein kinase erbB-2 (Homo sapiens, UniProt P04626); experiment: Inhibition of human ERBB2 at 1 uM using poly (Glu, Tyr)4:1 as substrate in presence of [gamma33P]-ATP by HotSpot assay relative to control
[10] = biological target: Tyrosine-protein kinase FRK (Homo sapiens, UniProt P42685); experiment: Inhibition of human FRK using RLGRDKYKTLRQIRQ as substrate in presence of [gamma33P]-ATP by HotSpot assay
Chain of Tyrosine-protein kinase FRK (P42685 whole entry): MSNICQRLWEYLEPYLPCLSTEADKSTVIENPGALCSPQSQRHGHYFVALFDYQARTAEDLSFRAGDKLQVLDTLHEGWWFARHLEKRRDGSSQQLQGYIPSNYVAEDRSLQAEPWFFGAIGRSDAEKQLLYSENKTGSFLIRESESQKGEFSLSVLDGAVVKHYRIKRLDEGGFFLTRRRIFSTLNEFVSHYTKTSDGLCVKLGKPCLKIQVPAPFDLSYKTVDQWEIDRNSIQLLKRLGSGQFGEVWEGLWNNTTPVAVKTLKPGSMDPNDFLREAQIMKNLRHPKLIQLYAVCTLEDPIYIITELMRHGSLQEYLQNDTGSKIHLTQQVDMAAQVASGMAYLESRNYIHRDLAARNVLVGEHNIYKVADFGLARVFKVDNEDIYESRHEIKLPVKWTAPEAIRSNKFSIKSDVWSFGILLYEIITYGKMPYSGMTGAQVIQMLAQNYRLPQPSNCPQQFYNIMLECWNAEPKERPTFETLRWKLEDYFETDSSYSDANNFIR

KARPAS-299 = experiment: Antitumor activity against ALK positive human KARPAS-299 cells xenografted in SCID beige mouse assessed as tumor regression at 50 mg/kg, po administered once daily for 14 days and measured after 13 days relative to control; format: functional; conditions: time 27 day
[11] = system: EML4-ALK (Homo sapiens), Q9UM73+Q9HC35 [L1152P]; conditions: BaF3, time 3-5 weeks
[12] = biological target: Serine/threonine-protein kinase PLK3 (Homo sapiens) (UniProt Q9H4B4); experiment: Inhibition of human PLK3 at 1 uM using casein as substrate in presence of [gamma33P]-ATP by HotSpot assay relative to control
[13] = system: EML4-ALK (Homo sapiens), Q9UM73+Q9HC35 [L1152R]; conditions: BaF3, dose 500.0 nmol/L, time 3-5 weeks
[14] = biological target: Tyrosine-protein kinase Fes/Fps (Homo sapiens, UniProt P07332); experiment: Inhibition of human FES using poly (Glu, Tyr)4:1 as substrate in presence of [gamma33P]-ATP by HotSpot assay
[15] = biological target: Mitogen-activated protein kinase 14 (Homo sapiens) (UniProt Q16539); experiment: Inhibition of human MAPK14 at 1 uM using MBP as substrate in presence of [gamma33P]-ATP by HotSpot assay relative to control
Chain of Mitogen-activated protein kinase 14 (Homo sapiens) (Q16539 whole entry): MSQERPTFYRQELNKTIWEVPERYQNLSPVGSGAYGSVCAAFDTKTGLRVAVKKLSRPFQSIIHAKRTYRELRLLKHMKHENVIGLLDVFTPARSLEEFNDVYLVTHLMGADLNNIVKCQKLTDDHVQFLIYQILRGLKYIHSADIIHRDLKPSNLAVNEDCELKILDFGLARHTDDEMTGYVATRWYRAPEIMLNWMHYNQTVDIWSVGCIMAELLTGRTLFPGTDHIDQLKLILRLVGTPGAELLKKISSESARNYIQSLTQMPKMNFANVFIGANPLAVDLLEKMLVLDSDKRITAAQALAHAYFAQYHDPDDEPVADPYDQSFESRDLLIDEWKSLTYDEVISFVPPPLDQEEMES

[16] = biological target: Protein kinase C iota type (Homo sapiens) (UniProt P41743); experiment: Inhibition of human PRKCI at 1 uM using ERMRPRKRQGSVRRRV as substrate in presence of [gamma33P]-ATP by HotSpot assay relative to control
[17] = biological target: Casein kinase I isoform gamma-3 (Homo sapiens) (UniProt Q9Y6M4); experiment: Inhibition of human CSNK1G3 at 1 uM using KRRRAL[pS]VASLPGL as substrate in presence of [gamma33P]-ATP by HotSpot assay relative to control
[18] = biological target: Ribosomal protein S6 kinase beta-1 (Homo sapiens) (UniProt P23443); experiment: Inhibition of human P70S6K at 1 uM using KKRNRTLTK as substrate in presence of [gamma33P]-ATP by HotSpot assay relative to control
Chain of Ribosomal protein S6 kinase beta-1 (Homo sapiens) (P23443 whole entry, looked up): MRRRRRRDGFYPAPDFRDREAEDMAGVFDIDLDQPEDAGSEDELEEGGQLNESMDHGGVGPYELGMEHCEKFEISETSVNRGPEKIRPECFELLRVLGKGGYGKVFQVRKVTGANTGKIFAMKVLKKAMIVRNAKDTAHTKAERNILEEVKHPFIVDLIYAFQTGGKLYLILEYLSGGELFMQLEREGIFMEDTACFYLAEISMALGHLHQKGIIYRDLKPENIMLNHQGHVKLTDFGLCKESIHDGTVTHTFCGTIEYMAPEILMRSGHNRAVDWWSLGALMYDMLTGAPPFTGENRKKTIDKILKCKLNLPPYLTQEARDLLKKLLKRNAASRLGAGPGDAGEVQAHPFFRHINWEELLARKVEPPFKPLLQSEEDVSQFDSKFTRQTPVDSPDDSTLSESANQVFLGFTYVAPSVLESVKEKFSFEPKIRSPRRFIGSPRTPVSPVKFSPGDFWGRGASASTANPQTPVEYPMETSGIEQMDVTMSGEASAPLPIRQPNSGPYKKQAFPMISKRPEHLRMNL

[19] = biological target: Dual specificity mitogen-activated protein kinase kinase 1 (Homo sapiens) (UniProt Q02750); experiment: Inhibition of human MAP2K1 at 1 uM using ERK2 as substrate in presence of [gamma33P]-ATP by HotSpot assay relative to control
Chain of Dual specificity mitogen-activated protein kinase kinase 1 (Homo sapiens) (Q02750 whole entry): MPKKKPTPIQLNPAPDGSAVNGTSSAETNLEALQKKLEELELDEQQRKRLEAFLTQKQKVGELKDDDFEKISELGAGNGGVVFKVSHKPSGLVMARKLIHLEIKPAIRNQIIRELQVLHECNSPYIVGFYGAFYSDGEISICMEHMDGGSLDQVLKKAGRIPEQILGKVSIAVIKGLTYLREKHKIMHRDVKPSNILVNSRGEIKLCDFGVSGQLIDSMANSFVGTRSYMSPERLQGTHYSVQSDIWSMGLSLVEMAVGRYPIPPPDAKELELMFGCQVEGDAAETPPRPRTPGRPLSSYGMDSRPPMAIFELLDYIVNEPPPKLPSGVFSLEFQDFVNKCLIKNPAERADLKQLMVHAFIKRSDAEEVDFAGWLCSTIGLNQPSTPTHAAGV

Aurora kinase C = Aurora kinase C (Homo sapiens, UniProt Q9UQB9); experiment: Inhibition of human AURKC using H-LRRASLG as substrate in presence of [gamma33P]-ATP by HotSpot assay
NCI-H2228 = experiment: Antitumor activity against ALK positive human NCI-H2228 cells xenografted in CB-17/SCID orthotopic brain tumor mouse model assessed as median survival time at 50 mg/kg po administered daily and measured after 64 days (reference value: 28 days); format: functional; conditions: time 64 day
[20] = biological target: Dual specificity protein kinase CLK2 (Homo sapiens, UniProt P49760); experiment: Inhibition of human CLK2 using MBP as substrate in presence of [gamma33P]-ATP by HotSpot assay
[21] = biological target: Mitogen-activated protein kinase kinase kinase 8 (Homo sapiens) (UniProt P41279); experiment: Inhibition of human MAP3K8 at 1 uM using MEK1 as substrate in presence of [gamma33P]-ATP by HotSpot assay relative to control
Insulin receptor = Insulin receptor (Homo sapiens, UniProt P06213); experiment: Inhibition of human INSR using poly (Glu, Tyr)4:1 as substrate in presence of [gamma33P]-ATP by HotSpot assay
Chain of Insulin receptor (P06213 28-758 limits assumed): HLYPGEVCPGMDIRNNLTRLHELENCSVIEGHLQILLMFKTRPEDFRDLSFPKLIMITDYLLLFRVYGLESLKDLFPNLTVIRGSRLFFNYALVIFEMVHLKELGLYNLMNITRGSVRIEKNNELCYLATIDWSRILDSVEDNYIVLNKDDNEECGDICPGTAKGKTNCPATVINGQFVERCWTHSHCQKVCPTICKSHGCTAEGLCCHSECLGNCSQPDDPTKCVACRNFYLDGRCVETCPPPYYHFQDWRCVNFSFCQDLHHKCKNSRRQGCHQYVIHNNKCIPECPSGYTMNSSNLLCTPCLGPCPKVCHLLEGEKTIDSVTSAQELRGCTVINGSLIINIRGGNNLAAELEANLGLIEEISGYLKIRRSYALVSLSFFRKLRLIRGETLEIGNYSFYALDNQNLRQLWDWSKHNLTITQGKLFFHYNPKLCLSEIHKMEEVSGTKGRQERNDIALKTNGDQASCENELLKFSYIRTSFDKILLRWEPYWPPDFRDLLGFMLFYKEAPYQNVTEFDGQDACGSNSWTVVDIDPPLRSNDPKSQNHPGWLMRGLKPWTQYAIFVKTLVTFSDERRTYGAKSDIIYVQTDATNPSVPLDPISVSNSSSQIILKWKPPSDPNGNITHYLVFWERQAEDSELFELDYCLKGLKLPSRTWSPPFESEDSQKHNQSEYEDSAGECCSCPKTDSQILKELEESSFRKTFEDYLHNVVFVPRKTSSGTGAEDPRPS
Chain of Insulin receptor (P06213 763-1382 limits assumed): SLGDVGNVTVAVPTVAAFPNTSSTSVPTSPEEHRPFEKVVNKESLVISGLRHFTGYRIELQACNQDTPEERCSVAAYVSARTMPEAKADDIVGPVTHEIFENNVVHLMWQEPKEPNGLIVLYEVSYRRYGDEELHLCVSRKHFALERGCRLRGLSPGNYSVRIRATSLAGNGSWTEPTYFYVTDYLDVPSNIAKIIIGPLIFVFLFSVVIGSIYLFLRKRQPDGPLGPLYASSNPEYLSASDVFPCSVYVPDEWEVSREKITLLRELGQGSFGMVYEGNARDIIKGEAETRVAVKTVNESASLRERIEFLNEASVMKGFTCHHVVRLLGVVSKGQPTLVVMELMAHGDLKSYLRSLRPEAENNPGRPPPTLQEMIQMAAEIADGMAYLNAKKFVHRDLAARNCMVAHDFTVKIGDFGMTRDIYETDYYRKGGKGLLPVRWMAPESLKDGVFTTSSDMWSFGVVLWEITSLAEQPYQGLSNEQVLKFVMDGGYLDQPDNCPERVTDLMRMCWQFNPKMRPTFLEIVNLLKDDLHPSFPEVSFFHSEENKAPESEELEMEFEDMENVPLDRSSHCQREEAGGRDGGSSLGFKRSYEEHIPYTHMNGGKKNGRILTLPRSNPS

[22] = biological target: Mitogen-activated protein kinase 10 (Homo sapiens) (UniProt P53779); experiment: Inhibition of human MAPK10 at 1 uM using ATF2 as substrate in presence of [gamma33P]-ATP by HotSpot assay relative to control
[23] = biological target: RAF proto-oncogene serine/threonine-protein kinase (Homo sapiens) (UniProt P04049); experiment: Inhibition of human RAF1 at 1 uM using MEK1 as substrate in presence of [gamma33P]-ATP by HotSpot assay relative to control

SMILES: COc1cc(N2CCC(N3CCN(C)CC3)CC2)ccc1Nc1ncc(Cl)c(Nc2ccccc2P(C)(C)=O)n1 [BRIGATINIB]
- inhibition [1]: < 90%
- Activity (BaF3): 89%
- inhibition [2]: < 90%
- IC90 [3]: 109 nM
- inhibition [4]: < 90%
- IC50 [5]: 5.6 nM
- GI50 (NCI-H23): 1340 nM
- IC90 [6]: 2970 nM
- IC50 [7]: 154 nM
- inhibition [8]: < 90%
- inhibition [9]: < 90%
- IC50 [10]: 52 nM
- Activity (KARPAS-299): ~100%
- IC90 [11]: 94 nM
- inhibition [12]: < 90%
- inhibition [13]: Active
- IC50 [14]: 3.5 nM
- inhibition [15]: < 90%
- inhibition [16]: < 90%
- inhibition [17]: < 90%
- inhibition [18]: < 90%
- inhibition [19]: < 90%
- IC50 (Aurora kinase C): > 1000 nM
- MSD (NCI-H2228): >64 days
- IC50 [20]: 240 nM
- inhibition [21]: < 90%
- IC50 (Insulin receptor): 160 nM
- inhibition [22]: < 90%
- inhibition [23]: < 90%

— ChEMBL document CHEMBL5696443 (Clin Cancer Res, 2016)
